From patent publication US20020183256A1, “Cytostatic-integrin conjugates having specifically cleavable linking units” (priority 2000, published 2002)
Like-named read-outs stand apart in the source and are kept apart here. *1 amine or outer side, *2 acyl side, *3 side chain or, on linkers, in order; H or OH if unused. Where a SMILES comes first, the peptide text is derived from it. [ ]: non-standard residue; d: D form. The star is where a group is joined. ξ: configuration not given here. X6 = O=C(O)CC(NS(=O)(=O)c1ccc(-c2cccc(NC(=O)Nc3nc4ccccc4[nH]3)c2)cc1)c1cccc(N*)c1; Camptothecin(20R,20-O) = CC[C@]1(O*)C(=O)OCc2c1cc1n(c2=O)Cc2cc3ccccc3nc2-1; X1 = CCCNC(=O)Nc1cccc(S(=O)(=O)Nc2cccc(C(CC(=O)O)N*)c2)c1; NH(1,4-C6H4)NHCS = S=C(Nc1ccc(N[*:1])cc1)[*:2]; ξH = NC(Cc1c[nH]cn1)C(=O)O; CO = O=C([*:1])[*:2]

Legend:
[1] = system: HT29; assay: Growth inhibition test (MTT), cytotoxic action on tumour cell lines; format: cell-based, human
Method: (§1) The human large intestine cell lines SW 480 and HT29 (ATCC No. CCL 228 and HTB38 and the mouse melanoma cell line B16F10 (CRL 6475) were grown to confluence in Roux dishes in RPMI 1640 medium with addition of 10% FCS. They were then trypsinized and taken up in RPMI plus 10% FCS to a cell count of 50,000 cells or, for B16F10, 20,000 cells per ml. 100 μl of cell suspension/well were added to a 96 microwell plate and incubated at 37° C. for 1 day in a CO2 incubator. A further 100 μl of RPMI medium and 1 μl of DMSO were then added with the test substances. The growth was checked after day 6. For this, 25 μl of MTT solution (3-(4,5-dimethylthiazol-2-yl)-2,5-diphenyltetrazolium bromide) was added to each well at a starting concentration of 5 mg/ml of H2O. The plate was incubated at 37° C. for 5 hours in a CO2 incubator. The medium was then aspirated and 100 μl of i-propanol/well were added. After shaking with 100 μl of H2O for 30 min, the extinction was measured at 595 nm using a Multiplate Reader (BIO-RAD) 3550-UV).
(§2) The cytostatic action is indicated in Table 2 as an IC50 value, in each case for the individual cell lines.

[2] = system: SW 480; assay: as above; format: cell-based, human
Method: as §1, §2

[3] = system: B16F10; assay: as above; format: cell-based, mouse
Method: as §1, §2

[4] = molecular target: T1, αvβ3 receptor (Homo sapiens, UniProt P05106+P06756); assay: αvβ3 binding test (echistatin displacement, WGA SPA beads); conditions: IC50 values of the binding to the αvβ3 receptor, αvβ3 from human A375 cells
T1 construct: αvβ3 from human A375 cells was purified; endogenous in cells; host or cells: human A375 cells (receptor purified from the cells, analogous to Wong et al. 1996)
T1 sequence (P06756 31-889 limits assumed): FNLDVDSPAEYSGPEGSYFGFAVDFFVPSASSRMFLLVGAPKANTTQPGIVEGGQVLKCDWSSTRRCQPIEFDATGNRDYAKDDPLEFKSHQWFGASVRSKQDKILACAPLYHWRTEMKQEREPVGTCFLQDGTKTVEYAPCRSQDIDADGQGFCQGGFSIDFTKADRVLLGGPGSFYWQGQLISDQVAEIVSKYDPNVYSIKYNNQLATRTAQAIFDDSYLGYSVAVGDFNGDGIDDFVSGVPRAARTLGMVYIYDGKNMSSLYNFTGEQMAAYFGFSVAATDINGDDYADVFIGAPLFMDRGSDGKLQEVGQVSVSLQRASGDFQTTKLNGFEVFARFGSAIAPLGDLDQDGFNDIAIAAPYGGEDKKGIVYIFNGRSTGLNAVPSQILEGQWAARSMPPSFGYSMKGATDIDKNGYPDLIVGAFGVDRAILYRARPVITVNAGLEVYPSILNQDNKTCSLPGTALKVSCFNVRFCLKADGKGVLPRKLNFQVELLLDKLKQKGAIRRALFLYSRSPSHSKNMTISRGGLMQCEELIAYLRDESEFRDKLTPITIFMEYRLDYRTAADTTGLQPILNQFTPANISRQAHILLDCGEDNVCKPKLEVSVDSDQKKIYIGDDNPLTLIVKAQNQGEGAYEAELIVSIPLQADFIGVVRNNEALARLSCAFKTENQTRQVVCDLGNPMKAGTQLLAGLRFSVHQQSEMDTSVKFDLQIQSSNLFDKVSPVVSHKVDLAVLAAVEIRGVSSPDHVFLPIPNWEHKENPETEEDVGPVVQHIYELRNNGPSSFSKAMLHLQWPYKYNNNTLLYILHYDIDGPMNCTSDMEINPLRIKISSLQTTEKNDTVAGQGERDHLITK
T1 sequence (P06756 891-1048 partner limits assumed): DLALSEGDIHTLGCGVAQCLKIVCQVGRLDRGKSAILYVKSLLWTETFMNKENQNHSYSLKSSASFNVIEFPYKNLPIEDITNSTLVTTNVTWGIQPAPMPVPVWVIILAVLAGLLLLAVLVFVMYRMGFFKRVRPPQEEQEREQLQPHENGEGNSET
T1 sequence (P05106 27-788): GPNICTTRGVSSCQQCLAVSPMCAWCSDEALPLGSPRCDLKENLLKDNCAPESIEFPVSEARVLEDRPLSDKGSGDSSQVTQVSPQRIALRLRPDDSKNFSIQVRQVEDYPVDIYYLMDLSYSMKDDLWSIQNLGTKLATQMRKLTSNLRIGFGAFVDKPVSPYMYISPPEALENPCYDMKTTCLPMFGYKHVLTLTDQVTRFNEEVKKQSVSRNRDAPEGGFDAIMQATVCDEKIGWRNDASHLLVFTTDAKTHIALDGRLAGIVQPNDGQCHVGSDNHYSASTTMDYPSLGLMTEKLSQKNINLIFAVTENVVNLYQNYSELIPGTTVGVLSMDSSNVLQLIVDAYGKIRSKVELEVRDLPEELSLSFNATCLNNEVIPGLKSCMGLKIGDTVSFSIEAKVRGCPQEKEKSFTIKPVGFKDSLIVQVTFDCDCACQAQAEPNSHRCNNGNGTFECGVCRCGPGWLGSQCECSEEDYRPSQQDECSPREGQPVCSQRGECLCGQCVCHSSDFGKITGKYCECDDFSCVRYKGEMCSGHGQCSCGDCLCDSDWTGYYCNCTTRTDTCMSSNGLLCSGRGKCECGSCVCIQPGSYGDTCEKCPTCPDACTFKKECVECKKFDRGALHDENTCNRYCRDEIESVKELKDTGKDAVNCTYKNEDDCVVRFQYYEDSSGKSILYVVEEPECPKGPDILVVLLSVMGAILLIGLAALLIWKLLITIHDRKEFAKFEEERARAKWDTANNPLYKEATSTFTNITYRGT
Method: αvβ3 from human A375 cells was purified analogously to a procedure which was described by Wong et al. (Molecular Pharmacology, 50, 529-537 (1996)). In each case, 10 μl of αvβ3 (5 ng) in TBS pH 7.6, 2 mM CaCl2, 1 mM MgCl2, 1% n-octylglucopyranoside (Sigma); 10 μl of test substance in TBS pH 7.6, 0.1% DMSO and 45 μl of TBS pH 7.6, 2 mM CaCl2, 1 mM MgCl2, 1 mM MnCl2 were incubated at room temperature for 1 h. In each case, 25 μl of WGA SPA beads (Amersham, 4 mg/ml) and 10 μl of echistatin (0.1 μCi, Amersham, chloramine-T labelled) were then added. After 16 hours at room temperature, the samples were measured in a scintillation measuring apparatus (Wallac 1450).

[5] = HT29, MTT after day 6, read-out: IC50 values of the cytotoxic action on tumour cell lines, HT29
[6] = SW480, MTT after day 6, read-out: IC50 values of the cytotoxic action on tumour cell lines, SW480
[7] = B16F10, MTT after day 6, read-out: IC50 values of the cytotoxic action on tumour cell lines, B16F10

CCCNC(=O)Nc1cccc(S(=O)(=O)Nc2cccc(C(CC(=O)O)NC(=O)Nc3ccc(NC(=S)N4CCC[C@@H]4C(=O)N[C@@H](CC(C)C)C(=O)NCC(=O)N[C@H](CCC)C(=O)N[C@H](CC(N)=O)C(=O)N[C@@H](C(=O)O[C@@]4(CC)C(=O)OCc5c4cc4n(c5=O)Cc5cc6ccccc6nc5-4)C(C)C)cc3)c2)c1 (single isomer, unassigned) [Example 21]
IC50 [1, 5]: 30 nM
IC50 [2, 6]: 60 nM
IC50 [3, 7]: 200 nM

CCCCNC(=O)Nc1cccc(S(=O)(=O)Nc2cccc(C(CC(=O)O)NC(=O)Nc3ccc(NC(=S)NCC(=O)N4CCC[C@@H]4C(=O)N[C@@H](CC(C)C)C(=O)NCC(=O)N[C@H](CC(C)C)C(=O)N[C@H](CC(N)=O)C(=O)N[C@@H](C(=O)O[C@@]4(CC)C(=O)OCc5c4cc4n(c5=O)Cc5cc6ccccc6nc5-4)C(C)C)cc3)c2)c1 (single isomer, unassigned) [Example 22]
IC50 [1, 5]: 15 nM
IC50 [2, 6]: 30 nM
IC50 [3, 7]: 90 nM

CCCNC(=O)Nc1cccc(S(=O)(=O)Nc2cccc(C(CC(=O)O)NC(=O)Nc3ccc(NC(=S)N4CCC[C@@H]4C(=O)N[C@@H](CC(C)C)C(=O)NCC(=O)N[C@H](Cc4c[nH]cn4)C(=O)N[C@@H](C(=O)O[C@@]4(CC)C(=O)OCc5c4cc4n(c5=O)Cc5cc6ccccc6nc5-4)C(C)C)cc3)c2)c1 (single isomer, unassigned) [Example 26]
IC50 [1, 5]: 50 nM
IC50 [2, 6]: 90 nM
IC50 [3, 7]: 300 nM

CCCNC(=O)Nc1cccc(S(=O)(=O)Nc2cccc(C(CC(=O)O)NC(=O)Nc3ccc(NC(=S)N4CCC[C@@H]4C(=O)N[C@@H](CC(C)C)C(=O)NCC(=O)N[C@H](CC(C)C)C(=O)N[C@@H](C(=O)O[C@@]4(CC)C(=O)OCc5c4cc4n(c5=O)Cc5cc6ccccc6nc5-4)C(C)C)cc3)c2)c1 (single isomer, unassigned) [Example 27]
IC50 [1, 5]: 150 nM
IC50 [2, 6]: 200 nM
IC50 [3, 7]: 800 nM

CCCNC(=O)Nc1cccc(S(=O)(=O)Nc2cccc(C(CC(=O)O)NC(=O)Nc3ccc(NC(=S)N4CCC[C@@H]4C(=O)N4CCC[C@@H]4C(=O)N[C@@H](CC(C)C)C(=O)NCC(=O)N[C@H](CC(C)C)C(=O)N[C@H](CC(N)=O)C(=O)N[C@@H](C(=O)O[C@@]4(CC)C(=O)OCc5c4cc4n(c5=O)Cc5cc6ccccc6nc5-4)C(C)C)cc3)c2)c1 (single isomer, unassigned) [Example 28]
IC50 [1, 5]: 30 nM
IC50 [2, 6]: 30 nM
IC50 [3, 7]: 250 nM

CCCNC(=O)Nc1cccc(S(=O)(=O)Nc2cccc(C(CC(=O)O)NC(=O)Nc3ccc(NC(=S)NCC(=O)N4CCC[C@@H]4C(=O)N[C@@H](CC(C)C)C(=O)NCC(=O)N[C@H](CC(C)C)C(=O)N[C@H](Cc4c[nH]cn4)C(=O)N[C@@H](C(=O)O[C@@]4(CC)C(=O)OCc5c4cc4n(c5=O)Cc5cc6ccccc6nc5-4)C(C)C)cc3)c2)c1 (single isomer, unassigned) [Example 29]
IC50 [1, 5]: 80 nM
IC50 [2, 6]: 100 nM
IC50 [3, 7]: 400 nM

CC[C@]1(OC(=O)[C@H](NC(=O)[C@@H](Cc2c[nH]cn2)NC(=O)[C@@H](CC(C)C)NC(=O)CNC(=O)[C@H](CC(C)C)NC(=O)[C@H]2CCCN2C(=O)Nc2cccc(C(CC(=O)O)NS(=O)(=O)c3ccc(-c4cccc(NC(=O)Nc5nc6ccccc6[nH]5)c4)cc3)c2)C(C)C)C(=O)OCc2c1cc1n(c2=O)Cc2cc3ccccc3nc2-1 (stereo partly drawn) [Example 7] ({X6-CO}-[dP]LG[dL][dH][dV]-{Camptothecin(20R,20-O)})
IC50 [1, 5]: 150 nM
IC50 [2, 6]: 150 nM
IC50 [4]: 700 nM
IC50 [3, 7]: 600 nM

CCCNC(=O)Nc1cccc(S(=O)(=O)Nc2cccc(C(CC(=O)O)NC(=O)Nc3ccc(NC(=S)N4CCC[C@@H]4C(=O)NCC(=O)NCC(=O)N[C@H](CC(C)C)C(=O)N[C@H](CC(N)=O)C(=O)N[C@@H](C(=O)O[C@@]4(CC)C(=O)OCc5c4cc4n(c5=O)Cc5cc6ccccc6nc5-4)C(C)C)cc3)c2)c1 (stereo partly drawn) [Example 23] ({X1-CO}-[NH(1,4-C6H4)NHCS][dP]GG[dL][dN][dV]-{Camptothecin(20R,20-O)})
IC50 [1, 5]: 150 nM
IC50 [2, 6]: 400 nM
IC50 [3, 7]: 1500 nM

CCCNC(=O)Nc1cccc(S(=O)(=O)Nc2cccc(C(CC(=O)O)NC(=O)Nc3ccc(NC(=S)N4CCC[C@@H]4C(=O)NC(Cc4c[nH]cn4)C(=O)NCC(=O)N[C@H](CC(C)C)C(=O)N[C@H](CC(N)=O)C(=O)N[C@@H](C(=O)O[C@@]4(CC)C(=O)OCc5c4cc4n(c5=O)Cc5cc6ccccc6nc5-4)C(C)C)cc3)c2)c1 (stereo partly drawn) [Example 24] ({X1-CO}-[NH(1,4-C6H4)NHCS][dP][ξH]G[dL][dN][dV]-{Camptothecin(20R,20-O)})
IC50 [1, 5]: 150 nM
IC50 [2, 6]: 400 nM
IC50 [3, 7]: 900 nM

CCCNC(=O)Nc1cccc(S(=O)(=O)Nc2cccc(C(CC(=O)O)NC(=O)Nc3ccc(NC(=S)N4CCC[C@H]4C(=O)N[C@@H](CC(C)C)C(=O)NCC(=O)N[C@@H](CC(C)C)C(=O)N[C@@H](C)C(=O)N[C@H](C(=O)O[C@]4(CC)C(=O)OCc5c4cc4n(c5=O)Cc5cc6ccccc6nc5-4)C(C)C)cc3)c2)c1 (stereo partly shown) [Example 30]
IC50 [1, 5]: 400 nM
IC50 [2, 6]: 500 nM

CCCNC(=O)Nc1cccc(S(=O)(=O)Nc2cccc(C(CC(=O)O)NC(=O)Nc3ccc(NC(=S)N4CCC[C@H]4C(=O)N[C@@H](CC(C)C)C(=O)NCC(=O)N[C@@H](CC(C)C)C(=O)N[C@H](C)C(=O)N[C@H](C(=O)O[C@]4(CC)C(=O)OCc5c4cc4n(c5=O)Cc5cc6ccccc6nc5-4)C(C)C)cc3)c2)c1 (stereo partly shown) [Example 31]
IC50 [1, 5]: 250 nM
IC50 [2, 6]: 300 nM

CCCNC(=O)Nc1cccc(S(=O)(=O)Nc2cccc(C(CC(=O)O)NC(=O)Nc3ccc(NC(=S)N4CCC[C@H]4C(=O)N[C@@H](CC(C)C)C(=O)NCC(=O)N[C@@H](CC(C)C)C(=O)N[C@H](C(=O)N[C@H](C(=O)O[C@]4(CC)C(=O)OCc5c4cc4n(c5=O)Cc5cc6ccccc6nc5-4)C(C)C)C(C)C)cc3)c2)c1 (stereo partly shown) [Example 32]
IC50 [1, 5]: 100 nM
IC50 [2, 6]: 120 nM
IC50 [3, 7]: 200 nM

CCCNC(=O)Nc1cccc(S(=O)(=O)Nc2cccc(C(CC(=O)O)NC(=O)Nc3ccc(NC(=S)N4CCC[C@H]4C(=O)N[C@@H](CC(C)C)C(=O)NCC(=O)N[C@@H](CC(C)C)C(=O)N[C@@H](Cc4ccccc4)C(=O)N[C@H](C(=O)O[C@]4(CC)C(=O)OCc5c4cc4n(c5=O)Cc5cc6ccccc6nc5-4)C(C)C)cc3)c2)c1 (stereo partly shown) [Example 33]
IC50 [1, 5]: 300 nM
IC50 [2, 6]: 400 nM
IC50 [3, 7]: 1000 nM

CCCNC(=O)Nc1cccc(S(=O)(=O)Nc2cccc(C(CC(=O)O)NC(=O)Nc3ccc(NC(=S)N4CCC[C@H]4C(=O)N[C@@H](CC(C)C)C(=O)NCC(=O)N[C@@H](CC(C)C)C(=O)N[C@@H](CO)C(=O)N[C@H](C(=O)O[C@]4(CC)C(=O)OCc5c4cc4n(c5=O)Cc5cc6ccccc6nc5-4)C(C)C)cc3)c2)c1 (stereo partly shown) [Example 34]
IC50 [1, 5]: 50 nM
IC50 [2, 6]: 100 nM
IC50 [3, 7]: 800 nM

CCCNC(=O)Nc1cccc(S(=O)(=O)Nc2cccc(C(CC(=O)O)NC(=O)Nc3ccc(NC(=S)N4CCC[C@H]4C(=O)N[C@@H](CC(C)C)C(=O)NCC(=O)N[C@@H](CC(C)C)C(=O)N[C@H](C(=O)N[C@H](C(=O)O[C@]4(CC)C(=O)OCc5c4cc4n(c5=O)Cc5cc6ccccc6nc5-4)C(C)C)C(C)CC)cc3)c2)c1 (stereo partly shown) [Example 35]
IC50 [1, 5]: 150 nM
IC50 [2, 6]: 200 nM
IC50 [3, 7]: 800 nM

CCCNC(=O)Nc1cccc(S(=O)(=O)Nc2cccc(C(CC(=O)O)NC(=O)Nc3ccc(NC(=S)N4CCC[C@H]4C(=O)N[C@@H](CC(C)C)C(=O)NCC(=O)N[C@@H](CC(C)C)C(=O)N[C@@H](CCC(=O)O)C(=O)N[C@H](C(=O)O[C@]4(CC)C(=O)OCc5c4cc4n(c5=O)Cc5cc6ccccc6nc5-4)C(C)C)cc3)c2)c1 (stereo partly shown) [Example 36]
IC50 ([1]; human, 6 day): 100 nM
IC50 ([2]; human, 6 day): 150 nM
IC50 ([3]; mouse, 6 day): 300 nM

CCCNC(=O)Nc1cccc(S(=O)(=O)Nc2cccc(C(CC(=O)O)NC(=O)Nc3ccc(NC(=S)N4CCC[C@H]4C(=O)N[C@@H](CC(C)C)C(=O)NCC(=O)N[C@@H](CC(C)C)C(=O)NCC(=O)N[C@H](C(=O)O[C@]4(CC)C(=O)OCc5c4cc4n(c5=O)Cc5cc6ccccc6nc5-4)C(C)C)cc3)c2)c1 (stereo partly shown) [Example 37]
IC50 [1, 5]: 300 nM
IC50 [2, 6]: 500 nM

CCCNC(=O)Nc1cccc(S(=O)(=O)Nc2cccc(C(CC(=O)O)NC(=O)Nc3ccc(NC(=S)N4CCC[C@H]4C(=O)N[C@@H](CC(C)C)C(=O)NCC(=O)N[C@@H](CC(C)C)C(=O)N4CCC[C@H]4C(=O)N[C@H](C(=O)O[C@]4(CC)C(=O)OCc5c4cc4n(c5=O)Cc5cc6ccccc6nc5-4)C(C)C)cc3)c2)c1 (stereo partly shown) [Example 38]
IC50 [1, 5]: 150 nM
IC50 [2, 6]: 200 nM
IC50 [3, 7]: 1000 nM
